Measured values from BindingDB's records for patent US9040727 (Shanghai Institute of Pharmaceutical Industry, 2015).
pIC50: −log10 of the molar value.

Molecular target: Histone deacetylase 1 (Homo sapiens, UniProt Q13547)
Assay: Inhibition Assay

Sequence of Histone deacetylase 1 (Q13547 whole entry): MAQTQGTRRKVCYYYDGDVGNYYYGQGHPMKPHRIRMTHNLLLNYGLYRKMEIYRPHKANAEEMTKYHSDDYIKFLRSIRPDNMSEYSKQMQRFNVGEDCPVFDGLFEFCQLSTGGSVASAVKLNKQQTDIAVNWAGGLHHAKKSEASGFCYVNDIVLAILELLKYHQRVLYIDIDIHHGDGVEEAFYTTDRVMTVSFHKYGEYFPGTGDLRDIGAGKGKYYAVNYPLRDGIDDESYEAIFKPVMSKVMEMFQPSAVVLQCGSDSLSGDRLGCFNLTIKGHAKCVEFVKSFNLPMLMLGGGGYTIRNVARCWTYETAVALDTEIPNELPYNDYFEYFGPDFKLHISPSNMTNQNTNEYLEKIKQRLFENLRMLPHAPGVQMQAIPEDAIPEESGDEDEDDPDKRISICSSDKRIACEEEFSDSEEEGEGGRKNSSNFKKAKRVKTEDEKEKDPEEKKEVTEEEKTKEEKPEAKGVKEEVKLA

SMILES | pIC50
Nc1ccccc1NC(=O)c1ccc(CNC(=O)c2cc3ccccc3o2)cc1 [US9040727, V-8] | 6.14
Nc1ccc(-c2cccs2)cc1NC(=O)c1ccc(CNC(=O)c2cc3ccccc3o2)cc1 [US9040727, V-10] | 5.79
Nc1ccccc1NC(=O)c1ccc(CNC(=O)c2cc3cc(C(F)(F)F)ccc3[nH]2)cc1 [US9040727, V-20] | 6.00

The next compounds have a higher pIC50 than those just listed; values first:

pIC50 | SMILES
6.67 | Nc1ccccc1NC(=O)c1ccc(CNC(=O)c2cc3ccccc3[nH]2)cc1 [US9040727, V-5]
6.75 | Nc1ccc(F)cc1NC(=O)c1ccc(CNC(=O)c2cc3ccccc3o2)cc1 [US9040727, V-9]
6.48 | Nc1ccc(-c2ccco2)cc1NC(=O)c1ccc(CNC(=O)c2nc3ccccc3[nH]2)cc1 [US9040727, V-14]
